Measured values taken from article PMC8480776, “Selenium Derivatives as Promising Therapy for Chagas Disease: In Vitro and In Vivo Studies” (ACS Infectious Diseases, 2021).

Experiments:
[1] = test system: T. cruzi epimastigotes, Arequipa strain; test: Screening against extracellular epimastigotes, Arequipa strain; assay type: cell-based, Trypanosoma cruzi; conditions: for IC50: Trypanosoma cruzi, 48 h + 24 h resazurin, read-out: Activity IC50, epimastigote form, Arequipa strain; for Selectivity index (SI), epimastigotes, Arequipa strain: IC50 Vero cells/IC50 epimastigotes
[2] = test system: T. cruzi epimastigotes, SN3 strain; test: Screening against extracellular epimastigotes, SN3 strain; assay type: cell-based, Trypanosoma cruzi; conditions: for IC50: Trypanosoma cruzi, 48 h + 24 h resazurin, read-out: Activity IC50, epimastigote form, SN3 strain; for Selectivity index (SI), epimastigotes, SN3 strain: IC50 Vero cells/IC50 epimastigotes
[3] = test system: T. cruzi epimastigotes, Tulahuen strain; test: Screening against extracellular epimastigotes, Tulahuen strain; assay type: cell-based, Trypanosoma cruzi; conditions: for IC50: Trypanosoma cruzi, TULAHUEN, 48 h + 24 h resazurin, read-out: Activity IC50, epimastigote form, Tulahuen strain; for Selectivity index (SI), epimastigotes, Tulahuen strain: IC50 Vero cells/IC50 epimastigotes
Vero cells = test: Cytotoxicity test on Vero cells; assay type: cell-based; conditions: Chlorocebus sabaeus, 48 h + 24 h resazurin, read-out: Toxicity IC50 Vero cell
[4] = test system: T. cruzi amastigotes, Arequipa strain; test: Screening against intracellular amastigotes, Arequipa strain; assay type: cell-based, Trypanosoma cruzi; conditions: for selectivity index (SI), Arequipa strain, am. forms: IC50 Vero cells/IC50 amastigotes; for IC50: Trypanosoma cruzi, amastigotes in Vero cells, 72 h, read-out: activity IC50, Arequipa strain, am. forms
[5] = test system: T. cruzi amastigotes, Tulahuen strain; test: Screening against intracellular amastigotes, Tulahuen strain; assay type: cell-based, Trypanosoma cruzi; conditions: Trypanosoma cruzi, TULAHUEN; amastigotes in Vero cells, 72 h; read-out: activity IC50, Tulahuen strain, am. forms
[6] = test system: T. cruzi trypomastigotes, Arequipa strain; test: Screening against bloodstream trypomastigotes, Arequipa strain; assay type: cell-based, Trypanosoma cruzi; conditions: for selectivity index (SI), Arequipa strain, trypom. forms: IC50 Vero cells/IC50 trypomastigotes; for IC50: Trypanosoma cruzi, bloodstream trypomastigotes, 24 h + 4 h resazurin, read-out: activity IC50, Arequipa strain, trypom. forms
[7] = test system: T. cruzi trypomastigotes, Tulahuen strain; test: Screening against bloodstream trypomastigotes, Tulahuen strain; assay type: cell-based, Trypanosoma cruzi; conditions: Trypanosoma cruzi, TULAHUEN; bloodstream trypomastigotes, 24 h + 4 h resazurin; read-out: activity IC50, Tulahuen strain, trypom. forms
[8] = test system: T. cruzi amastigotes, SN3 strain; test: Screening against intracellular amastigotes, SN3 strain; assay type: cell-based, Trypanosoma cruzi
[9] = test system: T. cruzi trypomastigotes, SN3 strain; test: Screening against bloodstream trypomastigotes, SN3 strain; assay type: cell-based, Trypanosoma cruzi

SMILES | IC50 [1] | IC50 [2] | IC50 [3] | CC50 (Vero cells) | also measured
O=C(Nc1ccc([Se][Se]c2ccc(NC(=O)c3ccccc3)cc2)cc1)c1ccccc1 [Compound 1] | > 50 µM | > 50 µM | > 50 µM | 800 ± 44 µM | 
O=C(Nc1ccc([Se][Se]c2ccc(NC(=O)c3ccc(Cl)cc3)cc2)cc1)c1ccc(Cl)cc1 [Compound 2] | > 50 µM | > 50 µM | > 50 µM | 622 ± 41.9 µM | 
COc1ccc(C(=O)Nc2ccc([Se][Se]c3ccc(NC(=O)c4ccc(OC)cc4)cc3)cc2)cc1 [Compound 3] | > 50 µM | > 50 µM | > 50 µM | 252 ± 21.6 µM | 
N#Cc1ccc(C(=O)Nc2ccc([Se][Se]c3ccc(NC(=O)c4ccc(C#N)cc4)cc3)cc2)cc1 [Compound 4] | > 50 µM | > 50 µM | > 50 µM | 280 ± 34.2 µM | 
O=C(Nc1ccc([Se][Se]c2ccc(NC(=O)c3ccc([N+](=O)[O-])cc3)cc2)cc1)c1ccc([N+](=O)[O-])cc1 [Compound 5] | > 50 µM | > 50 µM | > 50 µM | 552 ± 43.1 µM | 
O=C(Nc1ccc([Se][Se]c2ccc(NC(=O)c3ccc(C(F)(F)F)cc3)cc2)cc1)c1ccc(C(F)(F)F)cc1 [Compound 6] | > 50 µM | > 50 µM | > 50 µM | 536 ± 39.2 µM | 
Cc1ccc(C(=O)Nc2ccc([Se][Se]c3ccc(NC(=O)c4ccc(C)cc4)cc3)cc2)cc1 [Compound 7] | > 50 µM | > 50 µM | > 50 µM | 341 ± 28.3 µM | 
O=C(Nc1ccc([Se][Se]c2ccc(NC(=O)c3ccco3)cc2)cc1)c1ccco1 [Compound 8] | > 50 µM | > 50 µM | > 50 µM | 1250 ± 97.7 µM | 
O=C(Nc1ccc([Se][Se]c2ccc(NC(=O)c3cccs3)cc2)cc1)c1cccs1 [Compound 9] | > 50 µM | 48 ± 6.4 µM | > 50 µM | < 50 µM | 
O=C(Nc1ccc([Se][Se]c2ccc(NC(=O)c3ccno3)cc2)cc1)c1ccno1 [Compound 10] | > 50 µM | > 50 µM | > 50 µM | 212 ± 18.7 µM | 
O=C(Nc1ccc([Se][Se]c2ccc(NC(=O)C34CC5CC(CC(C5)C3)C4)cc2)cc1)C12CC3CC(CC(C3)C1)C2 [Compound 11] | > 50 µM | > 50 µM | > 50 µM | 226 ± 19.1 µM | 
O=C(/C=C/c1ccccc1)Nc1ccc([Se][Se]c2ccc(NC(=O)/C=C/c3ccccc3)cc2)cc1 [Compound 12] | > 50 µM | > 50 µM | > 50 µM | 280 ± 24.4 µM | 
O=C(Nc1ccc([Se][Se]c2ccc(NC(=O)c3cccc4ccccc34)cc2)cc1)c1cccc2ccccc12 [Compound 13] | > 50 µM | > 50 µM | > 50 µM | 98.2 ± 12.8 µM | 
CSc1ccc(C(=O)Nc2ccc([Se][Se]c3ccc(NC(=O)c4ccc(SC)cc4)cc3)cc2)cc1 [Compound 14] | > 50 µM | > 50 µM | > 50 µM | 407 ± 17.8 µM | 
COP(=O)(Nc1ccc([Se][Se]c2ccc(NP(=O)(OC)OC)cc2)cc1)OC [Compound 15] | 19.6 ± 2 µM | 12.5 ± 1.1 µM | 14.4 ± 1.7 µM | < 50 µM | 
O=P(Nc1ccc([Se][Se]c2ccc(NP(=O)(Oc3ccccc3)Oc3ccccc3)cc2)cc1)(Oc1ccccc1)Oc1ccccc1 [Compound 16] | > 50 µM | > 50 µM | > 50 µM | 147 ± 11.4 µM | 
CCOP(=O)(Nc1ccc([Se][Se]c2ccc(NP(=O)(OCC)OCC)cc2)cc1)OCC [Compound 17] | > 50 µM | > 50 µM | > 50 µM | 183 ± 20 µM | 
CCOP(=S)(Nc1ccc([Se][Se]c2ccc(NP(=S)(OCC)OCC)cc2)cc1)OCC [Compound 18] | > 50 µM | > 50 µM | > 50 µM | 182 ± 14.3 µM | 
O=P(Nc1ccccc1)(Nc1ccc([Se][Se]c2ccc(NP(=O)(Nc3ccccc3)Oc3ccccc3)cc2)cc1)Oc1ccccc1 (centres unmarked) [Compound 19] | > 50 µM | > 50 µM | > 50 µM | < 50 µM | 

SMILES | IC50 [1] | IC50 [2] | IC50 [3] | CC50 (Vero cells) | also measured
Cc1ccc(OP(=O)(Nc2ccc([Se][Se]c3ccc(NP(=O)(Oc4ccc(C)cc4)Oc4ccc(C)cc4)cc3)cc2)Oc2ccc(C)cc2)cc1 [Compound 20] | > 50 µM | > 50 µM | > 50 µM | < 50 µM | 
N#C[Se]c1ccc(NC(=O)c2ccccc2)cc1 [Compound 21] | > 50 µM | 37.1 ± 4.6 µM | > 50 µM | < 50 µM | 
N#C[Se]c1ccc(NC(=O)c2ccc(Cl)cc2)cc1 [Compound 22] | 36.2 ± 2.8 µM | 5.4 ± 0.7 µM | 19.4 ± 1.4 µM | < 50 µM | 
COc1ccc(C(=O)Nc2ccc([Se]C#N)cc2)cc1 [Compound 23] | 34.5 ± 2.7 µM | 4.1 ± 0.4 µM | 17.6 ± 2.5 µM | < 50 µM | 
N#C[Se]c1ccc(NC(=O)c2ccc(C#N)cc2)cc1 [Compound 24] | 30.5 ± 1.9 µM | 9.8 ± 1.2 µM | 15.4 ± 2.1 µM | 70.8 ± 5.4 µM | Selectivity index (SI), epimastigotes, Arequipa strain [1]: 2; Selectivity index (SI), epimastigotes, SN3 strain [2]: 7; Selectivity index (SI), epimastigotes, Tulahuen strain [3]: 5
N#C[Se]c1ccc(NC(=O)c2ccc([N+](=O)[O-])cc2)cc1 [Compound 25] | 26.3 ± 2.1 µM | > 50 µM | 25.3 ± 4.1 µM | 516 ± 42.2 µM | Selectivity index (SI), epimastigotes, Arequipa strain [1]: 20; Selectivity index (SI), epimastigotes, Tulahuen strain [3]: 20; selectivity index (SI), Arequipa strain, am. forms [4]: 10; IC50 [4]: 49.3 ± 4.1 µM; IC50 [5]: > 50 µM; selectivity index (SI), Arequipa strain, trypom. forms [6]: 14; IC50 [6]: 35.8 ± 5.8 µM; IC50 [7]: 42.2 ± 3.9 µM
Cc1ccc(C(=O)Nc2ccc([Se]C#N)cc2)cc1 [Compound 27] | 4.5 ± 0.7 µM | 4.2 ± 0.3 µM | 4.9 ± 0.3 µM | < 50 µM | 
N#C[Se]c1ccc(NC(=O)c2cccs2)cc1 [Compound 29] | 5.4 ± 0.8 µM | 8.9 ± 1.1 µM | 6.6 ± 0.4 µM | 60.9 ± 8.7 µM | Selectivity index (SI), epimastigotes, Arequipa strain [1]: 11; Selectivity index (SI), epimastigotes, SN3 strain [2]: 7; Selectivity index (SI), epimastigotes, Tulahuen strain [3]: 9; selectivity index (SI), Arequipa strain, am. forms [4]: 4; IC50 [4]: 15.4 ± 2 µM; selectivity index (SI), Arequipa strain, trypom. forms [6]: 5; IC50 [6]: 12.7 ± 1.2 µM
N#C[Se]c1ccc(NC(=O)c2ccno2)cc1 [Compound 30] | 9.8 ± 1 µM | 24.1 ± 2.3 µM | 15.3 ± 1.1 µM | 86 ± 6.7 µM | Selectivity index (SI), epimastigotes, Arequipa strain [1]: 9; Selectivity index (SI), epimastigotes, SN3 strain [2]: 4; Selectivity index (SI), epimastigotes, Tulahuen strain [3]: 6
N#C[Se]c1ccc(NC(=O)C23CC4CC(CC(C4)C2)C3)cc1 [Compound 31] | 4.6 ± 0.5 µM | 12.5 ± 1.6 µM | 8.1 ± 0.9 µM | < 50 µM | 
N#C[Se]c1ccc(NC(=O)/C=C/c2ccccc2)cc1 [Compound 32] | 7.4 ± 0.9 µM | 4.8 ± 0.8 µM | 7.9 ± 0.5 µM | < 50 µM | 
N#C[Se]c1ccc(NC(=O)c2cccc3ccccc23)cc1 [Compound 33] | 9.4 ± 1.2 µM | 4.8 ± 0.6 µM | 10.8 ± 1.2 µM | 52.7 ± 4.9 µM | Selectivity index (SI), epimastigotes, Arequipa strain [1]: 6; Selectivity index (SI), epimastigotes, SN3 strain [2]: 11; Selectivity index (SI), epimastigotes, Tulahuen strain [3]: 5; selectivity index (SI), SN3 strain, am. forms ([8]; IC50 Vero cells/IC50 amastigotes): 3; IC50 ([8]; Trypanosoma cruzi, amastigotes in Vero cells, 72 h, read-out: activity IC50, SN3 strain, am. forms): 16.9 ± 1.4 µM; selectivity index (SI), SN3 strain, trypom. forms ([9]; IC50 Vero cells/IC50 trypomastigotes): 4; IC50 ([9]; Trypanosoma cruzi, bloodstream trypomastigotes, 24 h + 4 h resazurin, read-out: activity IC50, SN3 strain, trypom. forms): 14.1 ± 1.1 µM
CSc1ccc(C(=O)Nc2ccc([Se]C#N)cc2)cc1 [Compound 34] | 16.4 ± 2 µM | 21 ± 2.7 µM | 29.1 ± 3.1 µM | 72.6 ± 9.9 µM | Selectivity index (SI), epimastigotes, Arequipa strain [1]: 4; Selectivity index (SI), epimastigotes, SN3 strain [2]: 3; Selectivity index (SI), epimastigotes, Tulahuen strain [3]: 2
COP(=O)(Nc1ccc([Se]C#N)cc1)OC [Compound 36] | 28.1 ± 3.2 µM | 4.3 ± 0.7 µM | 18.4 ± 1.4 µM | < 50 µM | 
N#C[Se]c1ccc(NP(=O)(Oc2ccccc2)Oc2ccccc2)cc1 [Compound 37] | 20.1 ± 2.8 µM | 30.3 ± 3.2 µM | 22.3 ± 3 µM | < 50 µM | 
CCOP(=O)(Nc1ccc([Se]C#N)cc1)OCC [Compound 38] | > 50 µM | > 50 µM | > 50 µM | < 50 µM | 
N#C[Se]c1ccc(NP(=O)(Nc2ccccc2)Oc2ccccc2)cc1 (centres unmarked) [Compound 40] | 41.1 ± 4.4 µM | > 50 µM | > 50 µM | < 50 µM | 
Cc1ccc(OP(=O)(Nc2ccc([Se]C#N)cc2)Oc2ccc(C)cc2)cc1 [Compound 41] | > 50 µM | 43.2 ± 5.3 µM | 29.9 ± 2.1 µM | < 50 µM | 
